Source: patent publication US20230285374A1, “THERAPEUTIC METHODS USING VADADUSTAT” (Akebia Therapeutics, Inc., priority 2019, published 2023)

Experiments:
[1] = tested on: stage 3, 4, or 5 CKD patients; assay: Phase 2a clinical trials in stage 3, 4, or 5 CKD patients (iron parameters vs placebo); assay type: in vivo, human
Experimental: In certain embodiments, unsaturated iron binding capacity (UIBC) may be determined by adding serum to an alkaline buffer/reductant solution containing a known concentration of iron to saturate the available binding sites on transferrin. The Ferrozine chromogen reacts only with the Fe^2+; therefore, an iron reductant is added to insure that all iron is present in the ferrous state. The excess unbound divalent iron reacts with Ferrozine chromogen to form a magenta complex, which is measure spectrophotometrically. The unsaturated iron binding capacity (UIBC) is equal to the difference measured in the concentrations of the added iron solution and the excess unbound iron. Serum TIBC is equal to total serum iron plus UIBC and may therefore be calculated using the results of the UIBC and serum iron determinations.
In certain embodiments, serum iron may be determined using a test based on the FerroZine method without deproteinization. Specimens are analyzed on the Roche Modular Instrument utilizing Roche Diagnostics Reagents. Under acidic conditions, iron is liberated from transferrin. The detergent clarifies lipemic samples. Ascorbate reduces the released Fe3+ ions to Fe2+ ions, which then react with FerroZine to form a colored complex. The color intensity is directly proportional to the iron concentration and can be measured photometrically.

[2] = tested on: anemic DD-CKD patients with prevalent dialysis and established ESA treatment; assay: Phase 3 Prevalent DD-CKD (Conversion) trial, vadadustat vs darbepoetin alfa; assay type: in vivo, human; conditions: for Ferritin, mean / Hepcidin, mean / TSAT, mean: Prevalent trial
Experimental: Two randomized Phase 3, open-label, sponsor-blind, active-controlled non-inferiority (NI) trials were conducted in anemic DD-CKD patients with incident dialysis and limited ESA exposure (Correction/Conversion trial) and with prevalent dialysis and established ESA treatment (Conversion trial). The primary safety endpoint was prespecified as the time to first major adverse cardiovascular event (MACE) (all-cause mortality, non-fatal MI, or non-fatal stroke) pooled across the two trials. Primary and key secondary efficacy endpoints were mean change in Hb from baseline [BL] to wks 24-36 and to wks 40-52 between two treatment arms, respectively.
Phase 3, randomized, open-label, active-controlled study of vadadustat vs darbepoetin alfa for the maintenance treatment of anemia after conversion from ESA therapy.
Following a Screening period of up to 8 weeks (56 days), subjects who met all inclusion and none of the exclusion criteria were randomized 1:1 to vadadustat or darbepoetin alfa.
Randomization were stratified by: • Geographic region (United States [US] versus European Union [EU] versus Rest of World [ROW]) • New York Heart Association congestive heart failure (CHF) Class 0 (no CHF) or I versus II or III. • Study entry Hb (<10.0 versus ≥10.0 g/dL).
Following randomization, there were 3 periods during the study: • Conversion and Maintenance Period (Weeks 0 to 52): conversion to study medication for maintaining Hb (Weeks 0-23), primary efficacy evaluation (Weeks 24-36), and secondary efficacy evaluation (Weeks 40-52). • Long-term Treatment Period (Weeks 53 to End of Treatment [EOT]): continued study medication to assess long-term safety. • Follow-up (EOT+4 weeks): post-treatment visit (either in person or via telephone) for safety.
Inclusion Criteria: • ≥18 years of age. • Receiving chronic maintenance dialysis (either peritoneal or hemodialysis) for end-stage kidney disease for at least 12 weeks prior to Screening. • Currently maintained on ESA therapy, with a dose received within 6 weeks prior to or during Screening. • Mean screening Hb between 8.0 and 11.0 g/dL (inclusive) in the US and between 9.0 and 12.0 g/dL (inclusive) outside of the US, as determined by the average of 2 Hb values measured by the central laboratory during Screening. • Serum ferritin ≥100 ng/mL and transferrin saturation (TSAT) 20% during Screening. • Folate and vitamin B12 measurements lower limit of normal during Screening. • Understands the procedures and requirements of the study and provides written informed consent and authorization for protected health information disclosure.
Exclusion Criteria: • Anemia due to a cause other than CKD or subjects with active bleeding or recent blood loss. • History of sickle cell disease, myelodysplastic syndromes, bone marrow fibrosis, hematologic malignancy, myeloma, hemolytic anemia, thalassemia, or pure red cell aplasia. • Red blood cell (RBC) transfusion within 8 weeks prior to randomization. • Anticipated to recover adequate kidney function to no longer require dialysis. • Aspartate aminotransferase (AST)/serum glutamic oxaloacetic transaminase (SGOT), alanine aminotransferase (ALT)/serum glutamic pyruvic transaminase (SGPT), or total bilirubin >2.0×upper limit of normal (ULN) during Screening. […]

[3] = tested on: subjects receiving hemodialysis, previously maintained on epoetin alfa; conditions: human, in vivo
Experimental: The primary endpoint was mean hemoglobin (Hb) change from pre-baseline average to midtrial (Weeks 7-8) and end-of trial (Weeks 15-16) and was analyzed using available data (no imputation).

Compound: O=C(O)CNC(=O)c1ncc(-c2cccc(Cl)c2)cc1O [Compound 1, Vadadustat]
- serum iron levels ([1]; 6 weeks post administration): not associated with an increase in serum iron levels
- total iron binding capacity (TIBC) levels ([1]; 6 weeks post administration, compared to placebo treated patients): increase
- transferrin saturation (TSAT) ([1]; dose-related): decrease
- Ferritin, mean ([2]; Baseline): 846.78 ng/mL
- Hepcidin, mean ([2]; Baseline): 193.86 ng/mL
- TSAT, mean ([2]; Baseline): 38.06%
- Ferritin, mean ([2]; Weeks 24-36): 801.93 ng/mL
- Hepcidin, mean ([2]; Weeks 24-36): 146.95 ng/mL
- TSAT, mean ([2]; Weeks 24-36): 34.77%
- Ferritin, mean ([2]; Weeks 40-52): 787.27 ng/mL
- Hepcidin, mean ([2]; Weeks 40-52): 137.41 ng/mL
- TSAT, mean ([2]; Weeks 40-52): 34.11%
- proportion of patients requiring RBC transfusions ([2]; weeks 24-36): 2.0%
- proportion of patients with an average hemoglobin value within the geography-specific target range ([2]; weeks 24-36): 49.2%
- mean (SEM) change from baseline in hemoglobin ([2]; weeks 24 to 36): 0.19 (0.032) g/dL
- mean difference between groups (vadadustat vs darbepoetin alfa) in change from baseline in hemoglobin ([2]; weeks 24 to 36): −0.17 (0.033) g/dL
- proportion of patients requiring RBC transfusions ([2]; weeks 40-52): 3.7%
- proportion of patients with an average hemoglobin value within the geography-specific target range ([2]; weeks 40-52): 44.3%
- mean change from baseline in hemoglobin ([2]; weeks 40 to 52): 0.23 (0.035) g/dL
- mean difference between groups (vadadustat vs darbepoetin alfa) in change from baseline in hemoglobin ([2]; weeks 40 to 52): −0.18 (0.035) g/dL
- deaths during the study [3]: No deaths
